Experimental data published in ChEMBL document CHEMBL5108020, “Design and synthesis of novel benzimidazole derivatives as potential Pseudomonas aeruginosa anti-biofilm agents inhibiting LasR: Evidence from comprehensive molecular dynamics simulation and in vitro investigation” (Eur J Med Chem, 2022).

Legend:
[1] = molecular target: T1, Transcriptional activator protein LasR (Pseudomonas aeruginosa (strain ATCC 15692 / PAO1 / 1C / PRS 101 / LMG12228), UniProt P25084); assay: Inhibition of Pseudomonas aeruginosa PAO-JP2 LasR co-transfected with LVAgfp reporter assessed as inhibition of GFP production by fluorescence based analysis
T1 sequence (P25084 whole entry): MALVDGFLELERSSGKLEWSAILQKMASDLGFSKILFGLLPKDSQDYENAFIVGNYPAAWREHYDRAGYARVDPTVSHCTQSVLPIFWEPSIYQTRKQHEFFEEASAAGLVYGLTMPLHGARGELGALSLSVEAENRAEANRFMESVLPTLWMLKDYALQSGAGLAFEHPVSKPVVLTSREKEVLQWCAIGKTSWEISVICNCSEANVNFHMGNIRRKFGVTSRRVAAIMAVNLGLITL

[2] = molecular target: T1, Transcriptional activator protein LasR; assay: Inhibition of Pseudomonas aeruginosa PAO-JG21 LasR co-transfected with LVAgfp reporter assessed as inhibition of GFP production by fluorescence based analysis
[3] = molecular target: T1, Transcriptional activator protein LasR; assay: Inhibition of Pseudomonas aeruginosa PAO1 LasR
[4] = molecular target: T2, HTH-type quorum-sensing regulator RhlR (Pseudomonas aeruginosa (strain ATCC 15692 / PAO1 / 1C / PRS 101 / LMG12228), UniProt P54292); assay: Inhibition of Pseudomonas aeruginosa PAO1 RhlR
T2 sequence (P54292 whole entry): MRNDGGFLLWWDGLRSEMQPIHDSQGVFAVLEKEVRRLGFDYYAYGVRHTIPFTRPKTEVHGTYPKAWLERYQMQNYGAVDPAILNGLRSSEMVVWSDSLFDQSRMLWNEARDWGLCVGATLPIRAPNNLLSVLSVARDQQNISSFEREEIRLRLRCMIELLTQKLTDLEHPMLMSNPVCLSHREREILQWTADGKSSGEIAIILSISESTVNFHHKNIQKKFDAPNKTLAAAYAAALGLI

[5] = molecular target: T1, Transcriptional activator protein LasR; assay: Inhibition of Pseudomonas aeruginosa PAO1 LasR co-transfected with LVAgfp reporter assessed as inhibition of GFP production measured after 12 to 24 hrs by fluorescence based analysis
[6] = molecular target: T2, HTH-type quorum-sensing regulator RhlR; assay: Inhibition of Pseudomonas aeruginosa PAO1 RhlR co-transfected with LVAgfp reporter assessed as inhibition of GFP production measured after 12 to 24 hrs by fluorescence based analysis
[7] = molecular target: T3, Transcriptional activator protein LasR (Pseudomonas aeruginosa (strain ATCC 15692 / PAO1 / 1C / PRS 101 / LMG12228)) (UniProt P25084); assay: Inhibition of Pseudomonas aeruginosa MH602 LasR co-transfected with ASVgfp reporter assessed as inhibition of GFP production at 250 uM by fluorescence based analysis
T3 sequence (whole entry): T1 sequence (P25084 whole entry)

[8] = molecular target: T3, Transcriptional activator protein LasR (Pseudomonas aeruginosa (strain ATCC 15692 / PAO1 / 1C / PRS 101 / LMG12228)); assay: Inhibition of Pseudomonas aeruginosa MH602 LasR co-transfected with ASVgfp reporter assessed as inhibition of GFP production at 125 uM by fluorescence based analysis
[9] = molecular target: T3, Transcriptional activator protein LasR (Pseudomonas aeruginosa (strain ATCC 15692 / PAO1 / 1C / PRS 101 / LMG12228)); assay: Inhibition of Pseudomonas aeruginosa MH602 LasR co-transfected with ASVgfp reporter assessed as inhibition of GFP production at 62.5 uM by fluorescence based analysis

Nc1nc2ccccc2[nH]1
IC50 [1]: 2.3 µM
IC50 [2]: 1.4 µM
IC50 [3]: 399 µM
IC50 [4]: 285 µM

Cc1cc2nc(N)[nH]c2cc1C
IC50 [5]: 37.5 µM
IC50 [6]: 12.5 µM

O=C(Cn1cc(-c2ccc([N+](=O)[O-])cc2)nn1)Nc1nc2ccccc2[nH]1
inhibition [7]: 68.2%
inhibition [8]: 67.1%
inhibition [9]: 63.7%
